# According to patent publication US11149031B2, “Substituted N-(3-fluoropropyl)-pyrrolidine compounds, processes for their preparation and therapeutic uses thereof” (SANOFI, priority 2016, dated 2021):
# pIC50: −log10 of the molar value.
# Key:
# [1] = target: His6-ERα298-554 WT (ERα ligand-binding domain) (Homo sapiens (Human), UniProt P03372); experiment: Test A: biochemical antagonist activity, LanthaScreen TR-FRET ERα coactivator assay, WT; settings: asterisk (*): protocol using 10 nM estradiol; read-out: Antagonism WT IC50
# His6-ERα298-554 WT (ERα ligand-binding domain), sequence (P03372 298-554): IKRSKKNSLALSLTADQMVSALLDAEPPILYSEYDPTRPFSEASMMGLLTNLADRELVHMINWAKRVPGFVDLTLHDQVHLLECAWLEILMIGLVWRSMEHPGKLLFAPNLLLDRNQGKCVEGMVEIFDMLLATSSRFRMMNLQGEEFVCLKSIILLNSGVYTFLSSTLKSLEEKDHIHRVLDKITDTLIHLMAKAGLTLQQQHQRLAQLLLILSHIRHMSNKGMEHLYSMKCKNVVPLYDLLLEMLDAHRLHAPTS
# How it was run: (§1)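 TR-FRET 520:495 nm emission ratio read after overnight room-temperature incubation; IC50 derived by 4-parameter logistic fit. Mix: 0.5 nM receptor LBD, 0.5 nM Tb-His6 antibody, 250 nM PGC1a peptide, 3 nM or 10 nM estradiol, pH 7.4 phosphate buffer.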
# [2] = target: His6-ERα298-554 D538G mutant (ERα ligand-binding domain) (Homo sapiens (Human), UniProt P03372, D538G); experiment: Test A: biochemical antagonist activity, LanthaScreen TR-FRET ERα coactivator assay, D538G mutant; settings: asterisk (*): protocol using 10 nM estradiol; read-out: Antagonism D538G IC50
# His6-ERα298-554 D538G mutant (ERα ligand-binding domain), sequence (P03372 298-554 D538G): as the sequence (P03372 298-554) above, with D241G counted along it
# How it was run: as §1
# [3] = target: His6-ERα298-554 Y537S mutant (ERα ligand-binding domain) (Homo sapiens (Human), UniProt P03372, Y537S); experiment: Test A: biochemical antagonist activity, LanthaScreen TR-FRET ERα coactivator assay, Y537S mutant; settings: asterisk (*): protocol using 10 nM estradiol; read-out: Antagonism Y537S IC50
# His6-ERα298-554 Y537S mutant (ERα ligand-binding domain), sequence (P03372 298-554 Y537S): as the sequence (P03372 298-554) above, with Y240S counted along it
# How it was run: as §1
# [4] = tested on: MCF7 cells (breast tumor cells) WT; experiment: Test B: cell proliferation/viability assay (CellTiter-Glo) on MCF7 WT; assay type: cell-based; settings: Homo sapiens, MCF7, 168 h, 7 days of compound exposure
# How it was run: (§2)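 Seven-day compound exposure, 9 concentrations from 3 to 0.000001 μM, in phenol red-free medium with 5% charcoal-stripped serum. ER Tyr537Ser and Asp538Gly lines derive from transfected MCF7 selected to grow without estradiol. Viability from CellTiter-Glo luminescence, background-corrected, as percent of untreated.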
# [5] = tested on: MCF7 cells expressing mutant estrogen receptor Tyr 537 Ser; experiment: Test B: cell proliferation/viability assay (CellTiter-Glo) on MCF7 Tyr 537 Ser mutant; assay type: cell-based; settings: Homo sapiens, MCF7, 168 h, MCF7 cells expressing ER Tyr 537 Ser mutant, 7 days of compound exposure, read-out: proliferation MCF7 Y537S IC50
# How it was run: as §2
# [6] = tested on: MCF7 cells expressing mutant estrogen receptor Asp 538 Gly; experiment: Test B: cell proliferation/viability assay (CellTiter-Glo) on MCF7 Asp 538 Gly mutant; assay type: cell-based; settings: Homo sapiens, MCF7, 168 h, MCF7 cells expressing ER Asp 538 Gly mutant, 7 days of compound exposure, read-out: proliferation MCF7 D538G IC50
# How it was run: as §2
# ERα in MCF7 cells = ERα in MCF7 cells (Homo sapiens (Human), UniProt P03372); experiment: Test C: estrogen receptor degradation activity, ERα in cell western assay in MCF7 cells; assay type: cell-based; settings: for DC50: 4 hours post compound addition, ERα in cell western, read-out: Degradation IC50; for % Degradation at 3 μM: 4 hours, relative to fulvestrant
# ERα in MCF7 cells, sequence (P03372 whole entry): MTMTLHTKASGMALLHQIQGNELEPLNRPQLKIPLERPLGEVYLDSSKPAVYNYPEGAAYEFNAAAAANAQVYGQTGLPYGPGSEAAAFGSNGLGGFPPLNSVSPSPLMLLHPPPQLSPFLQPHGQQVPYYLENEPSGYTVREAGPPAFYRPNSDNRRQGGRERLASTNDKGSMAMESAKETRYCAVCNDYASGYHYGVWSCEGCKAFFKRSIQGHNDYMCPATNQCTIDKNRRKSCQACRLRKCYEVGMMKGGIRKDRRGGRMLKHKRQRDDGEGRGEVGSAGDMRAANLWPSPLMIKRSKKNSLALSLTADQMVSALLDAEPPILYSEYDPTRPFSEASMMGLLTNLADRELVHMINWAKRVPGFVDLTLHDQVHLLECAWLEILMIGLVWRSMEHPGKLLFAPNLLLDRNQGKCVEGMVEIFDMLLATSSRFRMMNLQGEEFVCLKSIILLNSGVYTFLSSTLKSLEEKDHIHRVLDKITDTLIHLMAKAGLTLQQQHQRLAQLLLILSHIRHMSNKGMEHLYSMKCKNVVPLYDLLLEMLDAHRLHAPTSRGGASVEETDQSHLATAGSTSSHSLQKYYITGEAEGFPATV
# How it was run: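 In-cell western: ERα level (green) against DNA stain Syto-64 (red) by integrated intensity. MCF7 cells in hormone-depleted medium exposed 4 h to compound at 3-0.000018 μM final (1:5 series); fulvestrant 0.1 μM as positive control.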
SMILES,pIC50 [1],pIC50 [2],pIC50 [3],pIC50 [4],pIC50 [5],pIC50 [6],DC50 (ERα in MCF7 cells) [nM],% Degradation at 3 μM (ERα in MCF7 cells) [%]
"Cc1cc(C2=C(c3ccc(O[C@H]4CCN(CCCF)C4)cc3)c3ccc(C(=O)O)cc3SCC2)ccc1Cl [Example 211, 4-(4-chloro-3-methyl-phenyl)-5-[4-[(3S)-1-(3-fluoropropyl)pyrrolidin-3-yl]oxyphenyl]-2,3-dihydro-1-benzothiepine-8-carboxylic acid]",7.41,6.02,6.32,9.40,8.00,9.22,0.3,93
"Oc1ccc2c(c1)SCCC(c1ccc(OC(F)(F)F)cc1F)=C2c1ccc(O[C@H]2CCN(CCCF)C2)cc1 [Example 212, 5-[4-[(3S)-1-(3-fluoropropyl)pyrrolidin-3-yl]oxyphenyl]-4-[2-fluoro-4-(trifluoromethoxy)phenyl]-2,3-dihydro-1-benzothiepin-8-ol]",7.47,6.10,6.39,9.40,8.52,9.30,2,90
"Oc1ccc2c(c1)SCCC(c1ccc(OC(F)F)cc1F)=C2c1ccc(O[C@H]2CCN(CCCF)C2)cc1 [Example 213, 4-[4-(difluoromethoxy)-2-fluoro-phenyl]-5-[4-[(3S)-1-(3-fluoropropyl)pyrrolidin-3-yl]oxyphenyl]-2,3-dihydro-1-benzothiepin-8-ol]",8.40,7.02,7.26,9.52,8.70,9.70,0.9,86
"Oc1ccc2c(c1)SCCC(c1ccc(OC(F)(F)F)cc1)=C2c1ccc(O[C@H]2CCN(CCCF)C2)cc1 [Example 214, 5-[4-[(3S)-1-(3-fluoropropyl)pyrrolidin-3-yl]oxyphenyl]-4-[4-(trifluoromethoxy)phenyl]-2,3-dihydro-1-benzothiepin-8-ol]",7.42,6.27,6.34,9.40,8.22,9.15,1,82
"Oc1ccc2c(c1)SCCC(c1ccc(F)nc1F)=C2c1ccc(O[C@H]2CCN(CCCF)C2)cc1 [Example 215, 4-(2,6-difluoro-3-pyridyl)-5-[4-[(3S)-1-(3-fluoropropyl)pyrrolidin-3-yl]oxyphenyl]-2,3-dihydro-1-benzothiepin-8-ol]",8.10,6.72,7.07,10.00,8.52,9.70,0.2,93
"CC(C)(C)c1ccc(C2=C(c3ccc(O[C@H]4CCN(CCCF)C4)cc3)c3ccc(O)cc3SCC2)cc1 [Example 216, 4-(4-tert-butylphenyl)-5-[4-[(3S)-1-(3-fluoropropyl)pyrrolidin-3-yl]oxyphenyl]-2,3-dihydro-1-benzothiepin-8-ol]",7.48,6.18,6.27,9.22,7.89,9.00,0.2,88
"CCOc1ccc(C2=C(c3ccc(O[C@H]4CCN(CCCF)C4)cc3)c3ccc(O)cc3SCC2)c(F)c1F [Example 217, 4-(4-ethoxy-2,3-difluoro-phenyl)-5-[4-[(3S)-1-(3-fluoropropyl)pyrrolidin-3-yl]oxyphenyl]-2,3-dihydro-1-benzothiepin-8-ol]",8.40,7.21,7.41,10.00,8.30,9.22,0.2,87
"Oc1ccc2c(c1)SCCC(c1ccc(OCF)cc1)=C2c1ccc(O[C@H]2CCN(CCCF)C2)cc1 [Example 218, 4-[4-(fluoromethoxy)phenyl]-5-[4-[(3S)-1-(3-fluoropropyl)pyrrolidin-3-yl]oxyphenyl]-2,3-dihydro-1-benzothiepin-8-ol]",9.00,7.60,7.66,10.00,9.00,10.00,0.2,78
"Cc1noc(C)c1C1=C(c2ccc(O[C@H]3CCN(CCCF)C3)cc2)c2ccc(O)cc2SCC1 [Example 219, 4-(3,5-dimethylisoxazol-4-yl)-5-[4-[(3S)-1-(3-fluoropropyl)pyrrolidin-3-yl]oxyphenyl]-2,3-dihydro-1-benzothiepin-8-ol]",7.92,6.63,6.83,10.00,8.70,9.40,0.2,90
"CCOc1cc(F)c(C2=C(c3ccc(O[C@H]4CCN(CCCF)C4)cc3)c3ccc(O)cc3SCC2)cc1F [Example 220, 4-(4-ethoxy-2,5-difluoro-phenyl)-5-[4-[(3S)-1-(3-fluoropropyl)pyrrolidin-3-yl]oxyphenyl]-2,3-dihydro-1-benzothiepin-8-ol]",8.10,6.79,7.08,9.40,8.30,9.30,0.2,89
"CCOc1ccc(C2=C(c3ccc(O[C@H]4CCN(CCCF)C4)cc3)c3ccc(O)cc3SCC2)c(F)c1Cl [Example 221, 4-(3-chloro-4-ethoxy-2-fluoro-phenyl)-5-[4-[(3S)-1-(3-fluoropropyl)pyrrolidin-3-yl]oxyphenyl]-2,3-dihydro-1-benzothiepin-8-ol]",7.96,6.58,6.88,9.30,8.10,9.22,0.2,84
"Oc1ccc2c(c1)SCCC(c1ccc(SC(F)(F)F)cc1)=C2c1ccc(O[C@H]2CCN(CCCF)C2)cc1 [Example 222, 5-[4-[(3S)-1-(3-fluoropropyl)pyrrolidin-3-yl]oxyphenyl]-4-[4-(trifluoromethylsulfanyl)phenyl]-2,3-dihydro-1-benzothiepin-8-ol]",7.74,6.43,6.62,8.40,9.00,9.40,1,80
"Nc1ccc(C2=C(c3ccc(O[C@H]4CCN(CCCF)C4)cc3)c3ccc(O)cc3SCC2)c(F)n1 [Example 223, 4-(6-amino-2-fluoro-3-pyridyl)-5-[4-[(3S)-1-(3-fluoropropyl)pyrrolidin-3-yl]oxyphenyl]-2,3-dihydro-1-benzothiepin-8-ol]",8.70,7.38,7.62,9.00,10.00,9.70,0.2,85
"CCN(CC)c1ccc(C2=C(c3ccc(O[C@H]4CCN(CCCF)C4)cc3)c3ccc(O)cc3SCC2)c(F)c1 [Example 224, 4-[4-(diethylamino)-2-fluoro-phenyl]-5-[4-[(3S)-1-(3-fluoropropyl)pyrrolidin-3-yl]oxyphenyl]-2,3-dihydro-1-benzothiepin-8-ol]",7.15,5.83,5.99,8.52,7.08,8.10,3,85
"[O-][S+]1CCC(c2ccc(OC(F)(F)F)cc2)=C(c2ccc(O[C@H]3CCN(CCCF)C3)cc2)c2ccc(O)cc21 (stereo partly drawn) [Example 225, 5-[4-[(3S)-1-(3-fluoropropyl)pyrrolidin-3-yl]oxyphenyl]-1-oxo-4-[4-(trifluoromethoxy)phenyl]-2,3-dihydro-benzothiepin-8-ol]",6.12,< 5.40,< 5.40,7.74,6.60,7.44,6,82
"Cc1ccc(C2=C(c3ccc(O[C@H]4CCN(CCCF)C4)nc3)c3ccc(O)cc3CCC2)c(F)c1 [Example 237, 6-(2-fluoro-4-methyl-phenyl)-5-[6-[(3S)-1-(3-fluoropropyl)pyrrolidin-3-yl]oxy-3-pyridyl]-8,9-dihydro-7H-benzo[7]annulen-2-ol]",9.22,8.15,8.30,9.52,8.30,9.15,0.2,92
